# Columns and labels:
# thymic cells = test: ConA-induced proliferation of thymic cells (3H-thymidine uptake); type: in vivo, mice; details: thymic cells; for Induced proliferation (cpm) M ± SD / Stimulation index: ConA 1 μg/ml
# Excerpt: Materials and Methods: Eighteen (18) to twenty (20) gram (g) male mice, purchased from the Rappolovo Animal Facility, Russia, were used in the studies described below. C57BL/6 (B6) mice were used to evaluate the effect of SCV-07 in non-immunized mice. CBAxC57BL/6 (F1) mice were used for studies of the effects of SCV-07 on the antigen-specific immune response. Mice were kept under the standard animal facility conditions and were provided with a standard diet and water ad libitum. Each treatment group included 4-5 mice. […] A suspension containing filling agents alone, which corresponded to the maximum amount of filling agents in the doses of SCV-07 administered to experimental animals, was used a control. […] Assessment of Mitogen- and Antigen-Induced Proliferation: […] Antigen-specific proliferation was studied by stimulating thymocytes and splenoctyes in vitro with different concentrations of OvA for 96 h. Twenty (20) to twenty-four (24) hours prior to completion of incubation, 3H-labeled thymidine (5 μCi/ml) was added to the cells. The cells were then transferred to fiberglass filters with a Titertek® semi-automatic cell harvester. Thymidine uptake was measured using a RackBeta 1217 (Wallac) liquid scintillation β-counter. For quantitative analysis of proliferation, the stimulation index (SI) was calculated as a ratio of the intensity of label inclusion in the stimulated cells to that in non-stimulated cells.
# [1] = system: IL-2 production by ConA-stimulated splenocytes; test: IL-2 production by ConA-stimulated splenocytes; type: in vivo, mice
smiles,measurement,setting,value
"N[C@H](CCC(=O)N[C@@H](Cc1c[nH]c2ccccc12)C(=O)O)C(=O)O [SCV-07, γ-D-glutamyl-L-tryptophan]",Spontaneous proliferation (cpm) M ± SD,thymic cells; 0.1 μg/kg per os,250 ± 75 cpm
same,Spontaneous proliferation (cpm) M ± SD,"thymic cells; 1.0 μg/kg Tablet, per os",355 ± 62 cpm
same,Spontaneous proliferation (cpm) M ± SD,"thymic cells; 1.0 μg/kg i/p, Table 4",342 ± 83 cpm
same,Spontaneous proliferation (cpm) M ± SD,"thymic cells; 1.0 μg/kg i/p, Table 5",555 ± 20 cpm
same,Spontaneous proliferation (cpm) M ± SD,thymic cells; 1.0 μg/kg per os,198 ± 44 cpm
same,Spontaneous proliferation (cpm) M ± SD,"thymic cells; 10.0 μg/kg Tablet, per os",317 ± 77 cpm
same,Spontaneous proliferation (cpm) M ± SD,thymic cells; 10.0 μg/kg per os,246 ± 51 cpm
same,Spontaneous proliferation (cpm) M ± SD,thymic cells; 100.0 μg/kg per os,272 ± 98 cpm
same,Induced proliferation (cpm) M ± SD,"thymic cells; 0.01 μg/kg Tablet, per os",3144 ± 582 cpm
same,Stimulation index,"thymic cells; 0.01 μg/kg Tablet, per os",10.2
same,Induced proliferation (cpm) M ± SD,thymic cells; 0.01 μg/kg per os,6698 ± 1465 cpm
same,Stimulation index,thymic cells; 0.01 μg/kg per os,28.1
same,Induced proliferation (cpm) M ± SD,"thymic cells; 0.1 μg/kg Tablet, per os",9900 ± 2021 cpm
same,Stimulation index,"thymic cells; 0.1 μg/kg Tablet, per os",25.1
same,Induced proliferation (cpm) M ± SD,"thymic cells; 0.1 μg/kg i/p, Table 4",14261 ± 1400 cpm
same,Stimulation index,"thymic cells; 0.1 μg/kg i/p, Table 4",53.3
same,Induced proliferation (cpm) M ± SD,"thymic cells; 0.1 μg/kg i/p, Table 5",9897 ± 678 cpm
same,Stimulation index,"thymic cells; 0.1 μg/kg i/p, Table 5",39.4
same,Induced proliferation (cpm) M ± SD,thymic cells; 0.1 μg/kg per os,9754 ± 1633 cpm
same,Stimulation index,thymic cells; 0.1 μg/kg per os,39.1
same,Induced proliferation (cpm) M ± SD,"thymic cells; 1.0 μg/kg Tablet, per os",10248 ± 1913 cpm
same,Stimulation index,"thymic cells; 1.0 μg/kg Tablet, per os",28.9
same,Induced proliferation (cpm) M ± SD,"thymic cells; 1.0 μg/kg i/p, Table 4",20995 ± 6425 cpm
same,Stimulation index,"thymic cells; 1.0 μg/kg i/p, Table 4",61.4
same,Induced proliferation (cpm) M ± SD,"thymic cells; 1.0 μg/kg i/p, Table 5",33418 ± 3490 cpm
same,Stimulation index,"thymic cells; 1.0 μg/kg i/p, Table 5",49.7
same,Induced proliferation (cpm) M ± SD,thymic cells; 1.0 μg/kg per os,20658 ± 5873 cpm
same,Stimulation index,thymic cells; 1.0 μg/kg per os,104.6
same,Induced proliferation (cpm) M ± SD,"thymic cells; 10.0 μg/kg Tablet, per os",7675 ± 1456 cpm
same,Stimulation index,"thymic cells; 10.0 μg/kg Tablet, per os",24.2
same,Induced proliferation (cpm) M ± SD,thymic cells; 10.0 μg/kg per os,13905 ± 2443 cpm
same,Stimulation index,thymic cells; 10.0 μg/kg per os,56.6
same,Induced proliferation (cpm) M ± SD,thymic cells; 100.0 μg/kg per os,27589 ± 1331 cpm
same,Stimulation index,thymic cells; 100.0 μg/kg per os,101.4
same,proliferation of cells stimulated by the optimal dose of ConA,"thymic cells; per os or i/p, data not shown",did not significantly change
same,"IL-2 production (U/ml), M ± SD","[1]; ConA 1 μg/ml, 0.01 μg/kg per os",10.4 ± 1.1 U/ml
same,"IL-2 production (U/ml), M ± SD","[1]; ConA 1 μg/ml, 0.1 μg/kg i/p",16.1 ± 0.8 U/ml
same,"IL-2 production (U/ml), M ± SD","[1]; ConA 1 μg/ml, 0.1 μg/kg per os",7.5 ± 0.1 U/ml
same,"IL-2 production (U/ml), M ± SD","[1]; ConA 1 μg/ml, 1.0 μg/kg i/p",15.6 ± 0.3 U/ml
same,"IL-2 production (U/ml), M ± SD","[1]; ConA 1 μg/ml, 1.0 μg/kg per os",10.0 ± 0.4 U/ml
same,"IL-2 production (U/ml), M ± SD","[1]; ConA 1 μg/ml, 10.0 μg/kg per os",9.1 ± 1.3 U/ml
same,"IL-2 production (U/ml), M ± SD","[1]; ConA 1 μg/ml, 100.0 μg/kg per os",14.9 ± 2.4 U/ml
same,"IL-2 production (U/ml), M ± SD","[1]; ConA 2 μg/ml, 0.01 μg/kg per os",66.9 ± 12.6 U/ml
same,"IL-2 production (U/ml), M ± SD","[1]; ConA 2 μg/ml, 0.1 μg/kg i/p",93.4 ± 28.3 U/ml
same,"IL-2 production (U/ml), M ± SD","[1]; ConA 2 μg/ml, 0.1 μg/kg per os",85.8 ± 6.6 U/ml
same,"IL-2 production (U/ml), M ± SD","[1]; ConA 2 μg/ml, 1.0 μg/kg i/p",99.3 ± 6.1 U/ml
same,"IL-2 production (U/ml), M ± SD","[1]; ConA 2 μg/ml, 1.0 μg/kg per os",60.8 ± 1.2 U/ml
same,"IL-2 production (U/ml), M ± SD","[1]; ConA 2 μg/ml, 10.0 μg/kg per os",56.4 ± 2.1 U/ml
same,"IL-2 production (U/ml), M ± SD","[1]; ConA 2 μg/ml, 100.0 μg/kg per os",79.3 ± 16.3 U/ml
same,"IL-2 production (U/ml), M ± SD","[1]; Spontaneous, 0.01 μg/kg per os",0.0 ± 0.0 U/ml
same,"IL-2 production (U/ml), M ± SD","[1]; Spontaneous, 0.1 μg/kg i/p",2.0 ± 0.3 U/ml
same,"IL-2 production (U/ml), M ± SD","[1]; Spontaneous, 0.1 μg/kg per os",0.0 ± 0.0 U/ml
same,"IL-2 production (U/ml), M ± SD","[1]; Spontaneous, 1.0 μg/kg i/p",2.7 ± 0.3 U/ml
same,"IL-2 production (U/ml), M ± SD","[1]; Spontaneous, 1.0 μg/kg per os",0.3 ± 0.5 U/ml
same,"IL-2 production (U/ml), M ± SD","[1]; Spontaneous, 10.0 μg/kg per os",0.0 ± 0.0 U/ml
same,"IL-2 production (U/ml), M ± SD","[1]; Spontaneous, 100.0 μg/kg per os",0.3 ± 0.5 U/ml

# Source: patent publication US20090074815A1, “Immunomodulator Compounds as Vaccine Enhancers” (SCICLONE PHARMACEUTICALS, INC., priority 2005, published 2009)
